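Exposure lasted 48 hours, with cells grown in 96-well plates and compounds tested at five concentrations. The concentration for 50% growth inhibition is given as GI50.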 The source made the active and inactive calls. Rule as the data show it: active = GI50 up to about 1.1 µM and inactive = higher.
Columns and labels:
Experiment in all cases: NCI anticancer screen, dose series, 48 h
A549 = test system: A549
ACHN = test system: ACHN
CCRF-CEM = test system: CCRF-CEM
DMS-114 = test system: DMS-114
EKVX = test system: EKVX
HCT-116 = test system: HCT-116
HL-60 = test system: HL-60
HOP-92 = test system: HOP-92
IGROV-1 = test system: IGROV-1
KM12 = test system: KM12
MOLT-4 = test system: MOLT-4
NCI-H23 = test system: NCI-H23
NCI-H522 = test system: NCI-H522
OVCAR-5 = test system: OVCAR-5
RXF 393 = test system: RXF 393
RXF 631 = test system: RXF 631
SF-268 = test system: SF-268
SK-MEL-28 = test system: SK-MEL-28
SK-OV-3 = test system: SK-OV-3
SNB-19 = test system: SNB-19
SNB-78 = test system: SNB-78
SR = test system: SR
TK-10 = test system: TK-10
U-251 = test system: U-251
UACC-62 = test system: UACC-62
UO-31 = test system: UO-31
786-0 = test system: 786-0
A498 = test system: A498
COLO 205 = test system: COLO 205
DLD-1 = test system: DLD-1
HCC 2998 = test system: HCC 2998
HOP-62 = test system: HOP-62
HT-29 = test system: HT-29
K562 = test system: K562
KM-20L2 = test system: KM-20L2
LOX IMVI = test system: LOX IMVI
LXFL 529 = test system: LXFL 529
M14 = test system: M14
M19-MEL = test system: M19-MEL
Malme-3M = test system: Malme-3M
NCI-H226 = test system: NCI-H226
NCI-H460 = test system: NCI-H460
OVCAR-3 = test system: OVCAR-3
OVCAR-8 = test system: OVCAR-8
RPMI-8226 = test system: RPMI-8226
SF-295 = test system: SF-295
SF-539 = test system: SF-539
SK-MEL-2 = test system: SK-MEL-2
SK-MEL-5 = test system: SK-MEL-5
SNB-75 = test system: SNB-75
SW-620 = test system: SW-620
UACC-257 = test system: UACC-257
XF498 = test system: XF498
CAKI-1 = test system: CAKI-1
DMS-273 = test system: DMS-273
HCT-15 = test system: HCT-15
HOP-18 = test system: HOP-18
OVCAR-4 = test system: OVCAR-4
SN12C = test system: SN12C

## C=CC1C2=C(C(=O)NCC2)C2OC(O)C3=C(CCNC3=O)C2C1C (configuration not stated)
A549
  GI50: > 100 µM (inactive)
ACHN
  GI50: > 100 µM (inactive)
CCRF-CEM
  GI50: > 100 µM (inactive)
DMS-114
  GI50: > 100 µM (inactive)
EKVX
  GI50: > 100 µM (inactive)
HCT-116
  GI50: > 100 µM (inactive)
HL-60
  GI50: > 100 µM (inactive)
HOP-92
  GI50: > 100 µM (inactive)
IGROV-1
  GI50: > 100 µM (inactive)
KM12
  GI50: > 100 µM (inactive)
MOLT-4
  GI50: > 100 µM (inactive)
NCI-H23
  GI50: > 100 µM (inactive)
NCI-H522
  GI50: > 100 µM (inactive)
OVCAR-5
  GI50: > 100 µM (inactive)
RXF 393
  GI50: > 100 µM (inactive)
RXF 631
  GI50: > 100 µM (inactive)
SF-268
  GI50: > 100 µM (inactive)
SK-MEL-28
  GI50: > 100 µM (inactive)
SK-OV-3
  GI50: > 100 µM (inactive)
SNB-19
  GI50: > 100 µM (inactive)
SNB-78
  GI50: > 100 µM (inactive)
SR
  GI50: > 100 µM (inactive)
TK-10
  GI50: > 100 µM (inactive)
U-251
  GI50: > 100 µM (inactive)
UACC-62
  GI50: > 100 µM (inactive)
UO-31
  GI50: > 100 µM (inactive)

## C/C(CC(=O)Nc1cc(Cl)c(Cl)cc1Cl)=N\NS(=O)(=O)c1ccc(C)cc1
786-0
  GI50: 41.9 µM (inactive)
A498
  GI50: 53.6 µM (inactive)
A549
  GI50: 45.7 µM (inactive)
ACHN
  GI50: 25.1 µM (inactive)
CCRF-CEM
  GI50: 27.5 µM (inactive)
COLO 205
  GI50: 26.8 µM (inactive)
DLD-1
  GI50: 33.4 µM (inactive)
DMS-114
  GI50: 28.1 µM (inactive)
EKVX
  GI50: 35.3 µM (inactive)
HCC 2998
  GI50: 35.3 µM (inactive)
HCT-116
  GI50: 23 µM (inactive)
HL-60
  GI50: 24.1 µM (inactive)
HOP-62
  GI50: 31.8 µM (inactive)
HOP-92
  GI50: 23.1 µM (inactive)
HT-29
  GI50: 51.3 µM (inactive)
IGROV-1
  GI50: 37.4 µM (inactive)
K562
  GI50: 35.5 µM (inactive)
KM-20L2
  GI50: 41.8 µM (inactive)
KM12
  GI50: 40.3 µM (inactive)
LOX IMVI
  GI50: 39.3 µM (inactive)
LXFL 529
  GI50: 36.2 µM (inactive)
M14
  GI50: 34.8 µM (inactive)
M19-MEL
  GI50: 32.7 µM (inactive)
MOLT-4
  GI50: 29.5 µM (inactive)
Malme-3M
  GI50: 31.2 µM (inactive)
NCI-H226
  GI50: 17.9 µM (inactive)
NCI-H23
  GI50: 21.6 µM (inactive)
NCI-H460
  GI50: 38.8 µM (inactive)
NCI-H522
  GI50: 17.6 µM (inactive)
OVCAR-3
  GI50: 25.5 µM (inactive)
OVCAR-5
  GI50: 53.8 µM (inactive)
OVCAR-8
  GI50: 39.3 µM (inactive)
RPMI-8226
  GI50: 27.4 µM (inactive)
RXF 393
  GI50: 24.9 µM (inactive)
RXF 631
  GI50: 44 µM (inactive)
SF-268
  GI50: 29.3 µM (inactive)
SF-295
  GI50: 37.1 µM (inactive)
SF-539
  GI50: 30.5 µM (inactive)
SK-MEL-28
  GI50: 34.2 µM (inactive)
SK-MEL-2
  GI50: 28.9 µM (inactive)
SK-MEL-5
  GI50: 38.3 µM (inactive)
SK-OV-3
  GI50: 53.7 µM (inactive)
SNB-75
  GI50: 32.6 µM (inactive)
SNB-78
  GI50: 29 µM (inactive)
SW-620
  GI50: 58.3 µM (inactive)
TK-10
  GI50: 48.5 µM (inactive)
U-251
  GI50: 32 µM (inactive)
UACC-257
  GI50: 26 µM (inactive)
UACC-62
  GI50: 26.5 µM (inactive)
UO-31
  GI50: 21 µM (inactive)
XF498
  GI50: 28.7 µM (inactive)

## CCCCCCN(CCCCCC)C1=CC(=O)C(=O)c2ccccc21
786-0
  GI50: 16.7 µM (inactive)
A498
  GI50: 26.5 µM (inactive)
A549
  GI50: 17.1 µM (inactive)
ACHN
  GI50: 17 µM (inactive)
CAKI-1
  GI50: 15 µM (inactive)
CCRF-CEM
  GI50: 14.9 µM (inactive)
COLO 205
  GI50: 16.7 µM (inactive)
DLD-1
  GI50: 15.2 µM (inactive)
DMS-273
  GI50: 19.8 µM (inactive)
EKVX
  GI50: 14.6 µM (inactive)
HCC 2998
  GI50: 20.9 µM (inactive)
HCT-116
  GI50: 17.5 µM (inactive)
HCT-15
  GI50: 17.7 µM
HL-60
  GI50: 10.1 µM (inactive)
HOP-18
  GI50: 16.1 µM (inactive)
HOP-62
  GI50: 18.7 µM (inactive)
HOP-92
  GI50: 14.5 µM (inactive)
HT-29
  GI50: 15.1 µM (inactive)
IGROV-1
  GI50: 17.2 µM (inactive)
K562
  GI50: 17.1 µM (inactive)
KM-20L2
  GI50: 18.2 µM (inactive)
KM12
  GI50: 17.6 µM (inactive)
LOX IMVI
  GI50: 8.49 µM (inactive)
LXFL 529
  GI50: 19.3 µM (inactive)
M14
  GI50: 18.3 µM (inactive)
M19-MEL
  GI50: 2.26 µM (inactive)
MOLT-4
  GI50: 18.7 µM (inactive)
Malme-3M
  GI50: 21.3 µM (inactive)
NCI-H226
  GI50: 17.3 µM (inactive)
NCI-H23
  GI50: 11.5 µM (inactive)
NCI-H460
  GI50: 17.3 µM (inactive)
NCI-H522
  GI50: 11.6 µM (inactive)
OVCAR-3
  GI50: 3.55 µM (inactive)
OVCAR-4
  GI50: 15.4 µM (inactive)
OVCAR-5
  GI50: 19.1 µM (inactive)
OVCAR-8
  GI50: 16.1 µM (inactive)
RPMI-8226
  GI50: 16.7 µM (inactive)
RXF 393
  GI50: 25.1 µM (inactive)
RXF 631
  GI50: 14.7 µM (inactive)
SF-268
  GI50: 18.7 µM (inactive)
SF-295
  GI50: 15.7 µM (inactive)
SF-539
  GI50: 17.2 µM (inactive)
SK-MEL-28
  GI50: 17.6 µM (inactive)
SK-MEL-2
  GI50: 18.7 µM (inactive)
SK-MEL-5
  GI50: 17.2 µM (inactive)
SK-OV-3
  GI50: 17.7 µM (inactive)
SN12C
  GI50: 16.4 µM (inactive)
SNB-19
  GI50: 16.1 µM (inactive)
SNB-75
  GI50: 16.8 µM (inactive)
SNB-78
  GI50: 23 µM (inactive)
SR
  GI50: 15.8 µM (inactive)
SW-620
  GI50: 14.2 µM (inactive)
TK-10
  GI50: 21.7 µM (inactive)
U-251
  GI50: 15.8 µM (inactive)
UACC-257
  GI50: 15.2 µM (inactive)
UACC-62
  GI50: 16.5 µM (inactive)
UO-31
  GI50: 13.4 µM (inactive)

## COC(=O)/C(=N\O)C(C(=O)C=C(C)C)C(=O)C(=O)Nc1ccccc1C (configuration not stated)
786-0
  GI50: > 100 µM (inactive)
A498
  GI50: > 100 µM (inactive)
A549
  GI50: > 100 µM (inactive)
ACHN
  GI50: > 100 µM (inactive)
CAKI-1
  GI50: > 100 µM (inactive)
CCRF-CEM
  GI50: > 100 µM (inactive)
COLO 205
  GI50: > 100 µM (inactive)
DLD-1
  GI50: > 100 µM (inactive)
DMS-114
  GI50: > 100 µM (inactive)
DMS-273
  GI50: > 100 µM (inactive)
EKVX
  GI50: > 100 µM (inactive)
HCC 2998
  GI50: > 100 µM (inactive)
HCT-116
  GI50: > 100 µM (inactive)
HCT-15
  GI50: > 100 µM
HL-60
  GI50: > 100 µM (inactive)
HOP-18
  GI50: > 100 µM (inactive)
HOP-62
  GI50: > 100 µM (inactive)
HOP-92
  GI50: > 100 µM (inactive)
HT-29
  GI50: > 100 µM (inactive)
IGROV-1
  GI50: > 100 µM (inactive)
K562
  GI50: > 100 µM (inactive)
KM-20L2
  GI50: > 100 µM (inactive)
KM12
  GI50: > 100 µM (inactive)
LOX IMVI
  GI50: > 100 µM (inactive)
LXFL 529
  GI50: > 100 µM (inactive)
M14
  GI50: > 100 µM (inactive)
M19-MEL
  GI50: > 100 µM (inactive)
MOLT-4
  GI50: > 100 µM (inactive)
Malme-3M
  GI50: > 100 µM (inactive)
NCI-H226
  GI50: > 100 µM (inactive)
NCI-H23
  GI50: > 100 µM (inactive)
NCI-H460
  GI50: > 100 µM (inactive)
NCI-H522
  GI50: > 100 µM (inactive)
OVCAR-3
  GI50: > 100 µM (inactive)
OVCAR-4
  GI50: > 100 µM (inactive)
OVCAR-5
  GI50: > 100 µM (inactive)
OVCAR-8
  GI50: > 100 µM (inactive)
RPMI-8226
  GI50: > 100 µM (inactive)
RXF 393
  GI50: > 100 µM (inactive)
SF-268
  GI50: > 100 µM (inactive)
SF-295
  GI50: > 100 µM (inactive)
SF-539
  GI50: > 100 µM (inactive)
SK-MEL-28
  GI50: > 100 µM (inactive)
SK-MEL-2
  GI50: > 100 µM (inactive)
SK-MEL-5
  GI50: > 100 µM (inactive)
SK-OV-3
  GI50: > 100 µM (inactive)
SN12C
  GI50: > 100 µM (inactive)
SNB-19
  GI50: > 100 µM (inactive)
SNB-75
  GI50: > 100 µM (inactive)
SNB-78
  GI50: > 100 µM (inactive)
SR
  GI50: > 100 µM (inactive)
SW-620
  GI50: > 100 µM (inactive)
TK-10
  GI50: > 100 µM (inactive)
U-251
  GI50: > 100 µM (inactive)
UACC-257
  GI50: > 100 µM (inactive)
UACC-62
  GI50: > 100 µM (inactive)
UO-31
  GI50: > 100 µM (inactive)
XF498
  GI50: > 100 µM (inactive)

Source: ChEMBL document CHEMBL1201862, “PubChem BioAssay data set” (2004)
